Results as given in ChEMBL document CHEMBL1126231, “Synthesis and phototoxicity of a series of haematoporphyrin analogues” (1992).

Experiments:
[1] = In vivo localization capacities at 24 hr post injection in a mouse C6 intracerebral glioma model and the tumor; normal brain ratio was calculated; format: functional
[2] = In vivo localization capacities at 6 hr post injection in a mouse C6 intracerebral glioma model and the tumor; normal brain ratio was calculated; format: functional

Compound: CCOCCOC(C)C1=C(C)c2cc3[nH]c(cc4[nH]c(cc5nc(cc1n2)C(C)=C5C(C)OCCOCC)c(C)c4CCC(=O)O)c(CCC(=O)O)c3C (stereo not given)
- Ratio [1]: 25.1
- Ratio [2]: 37.7

Compound: CCOCCOC(C)C1=C(C)c2cc3[nH]c(cc4[nH]c(cc5nc(cc1n2)C(C)=C5C(C)OCCOCC)c(C)c4CCC(=O)NCCN(C)C)c(CCC(=O)NCCN(C)C)c3C (stereo not given)
- Ratio [1]: 8
- Ratio [2]: 15.2

Compound: CC1=C(C(C)SCC(=O)O)c2cc3nc(cc4[nH]c(cc5[nH]c(cc1n2)c(C)c5CCC(=O)O)c(CCC(=O)O)c4C)C(C(C)SCC(=O)O)=C3C (stereo not given)
- Ratio [1]: 28.2
- Ratio [2]: 23

Compound: CCOC(C)C1=C(C)c2cc3[nH]c(cc4[nH]c(cc5nc(cc1n2)C(C)=C5C(C)OCC)c(C)c4CCC(=O)NCCN(C)C)c(CCC(=O)NCCN(C)C)c3C (stereo not given)
- Ratio [1]: 6.4
- Ratio [2]: 2.4

Compound: CCOC(C)C1=C(C)c2cc3[nH]c(cc4[nH]c(cc5nc(cc1n2)C(C)=C5C(C)OCC)c(C)c4CCC(=O)O)c(CCC(=O)O)c3C (stereo not given)
- Ratio [1]: 8.7
- Ratio [2]: 17.5
